# Test results taken from the supplement of paper PMC10307832.
# How the values were obtained:
# Assay in all cases: relative viability (nuclei count vs DMSO), 5 days (fraction); higher = more cells survive
# [1] = compound: CC1=CC(=NN1)NC2=CC(=NC(=N2)/C=C/C3=CC=CC=C3)N4CCN(CC4)C + CS(=O)(=O)CCNCc1ccc(-c2ccc3ncnc(Nc4ccc(OCc5cccc(F)c5)c(Cl)c4)c3c2)o1 [Lapatinib] (partner 2 µM)
# In short: (§1)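 Nuclei were stained with Hoechst during a one-step fixation (final 0.05% Triton X-100, 1% formaldehyde, 1 ug/ml Hoechst) carried out 5 days after dosing, then counted on 4× images. The cells, lung cancer lines in 1536-well plates, had been dosed by pin tool the day after seeding with one drug alone or a fixed anchor-drug dose plus five library-drug doses (not always all listed) in √10 steps. Relative viability is the nuclei count in treated wells divided by that in vehicle wells, and each value is the median of duplicate plates.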
# [2] = compound: CC1=CC(=NN1)NC2=CC(=NC(=N2)/C=C/C3=CC=CC=C3)N4CCN(CC4)C + O=C(CCCCCCC(=O)Nc1ccccc1)NO [Vorinostat] (partner 1 µM)
# In short: as §1
# Obatoclax + AZD7762 = compound: COC1=CC(c2cc3ccccc3[nH]2)=N/C1=C\c1[nH]c(C)cc1C [Obatoclax] + NC(=O)Nc1cc(-c2cccc(F)c2)sc1C(=O)N[C@H]1CCCNC1 [AZD7762] (partner 0.2 µM)
# In short: as §1
# Obatoclax + Vorinostat = compound: COC1=CC(c2cc3ccccc3[nH]2)=N/C1=C\c1[nH]c(C)cc1C [Obatoclax] + O=C(CCCCCCC(=O)Nc1ccccc1)NO [Vorinostat] (partner 1 µM)
# In short: as §1
Cell Line,relative viability ([1]; first compound 0.08 µM),relative viability ([1]; first compound 0.253 µM),relative viability ([1]; first compound 0.8 µM),relative viability ([1]; first compound 2.53 µM),relative viability ([1]; first compound 8 µM),relative viability ([2]; first compound 0.08 µM),relative viability ([2]; first compound 0.253 µM),relative viability ([2]; first compound 0.8 µM),relative viability ([2]; first compound 2.53 µM),relative viability ([2]; first compound 8 µM),relative viability (Obatoclax + AZD7762; first compound 0.01 µM),relative viability (Obatoclax + AZD7762; first compound 0.03162 µM),relative viability (Obatoclax + AZD7762; first compound 0.1 µM),relative viability (Obatoclax + AZD7762; first compound 0.3162 µM),relative viability (Obatoclax + AZD7762; first compound 1 µM),relative viability (Obatoclax + Vorinostat; first compound 0.01 µM),relative viability (Obatoclax + Vorinostat; first compound 0.03162 µM),relative viability (Obatoclax + Vorinostat; first compound 0.1 µM),relative viability (Obatoclax + Vorinostat; first compound 0.3162 µM),relative viability (Obatoclax + Vorinostat; first compound 1 µM)
NCI-H2087,1.01,1.02,1.03,0.582,0.188,0.697,0.954,0.72,0.324,0.141,1.19,1.37,1.15,1.21,0.9,0.61,0.81,0.931,0.671,0.723
HCC-366,0.928,1.13,0.996,0.0251,0.0162,0.38,0.505,0.136,0.0276,0.0214,0.289,0.218,0.184,0.227,0.243,0.352,0.398,0.312,0.353,0.191
NCI-H2126,0.729,0.813,0.713,0.629,0.464,0.816,0.82,0.834,0.674,0.202,1.08,0.951,1.05,1.06,0.974,0.748,0.688,0.993,0.807,0.792
HCC-78,0.673,1.04,0.87,0.68,1.27,0.465,0.518,0.461,0.372,0.246,0.745,0.669,0.694,0.633,0.596,0.384,0.441,0.551,0.438,0.527
LCLC-97TM1,1.29,1.06,0.922,0.158,0.0857,0.625,0.787,0.74,0.19,0.0813,0.218,–,0.203,0.229,0.206,0.633,0.792,0.77,0.589,0.494
NCI-H838,1.03,1.28,0.831,0.214,0.091,0.726,0.729,0.394,0.146,0.117,0.873,0.933,0.776,0.889,0.656,0.687,0.7,0.736,0.678,0.36
NCI-H2347,0.908,0.95,1.04,0.938,0.99,0.593,0.686,0.583,0.44,0.262,0.687,0.836,0.777,0.695,0.869,0.633,0.71,0.514,0.54,0.465
NCI-H358,0.511,0.471,0.335,0.147,0.134,0.587,0.756,0.178,0.116,0.0712,0.519,0.438,0.543,0.307,0.224,0.661,0.73,0.595,0.183,0.141
NCI-H2405,1.09,0.87,1.22,0.696,0.133,1.05,1.1,1.02,0.406,0.142,0.726,0.857,–,0.924,0.8,1.05,1,–,0.984,0.981
HCC-15,0.867,0.856,0.835,0.319,0.167,0.861,0.875,0.887,0.526,0.114,1.04,1.34,1.21,1.25,1.36,0.875,0.815,0.83,0.747,0.786
